Read-outs that look alike come from different tables or passages of the source.
Key:
[1] = target: human Na,K-ATPase α1β1FXYD1 (Homo sapiens (Human), UniProt P05023); assay type: biochemical
[2] = target: human Na,K-ATPase α2β1FXYD1 (Homo sapiens, UniProt P50993); assay type: biochemical
[3] = tested on: human Na,K-ATPase α2β1FXYD1; assay type: biochemical
[4] = target: human Na,K-ATPase α2β2FXYD1 (Homo sapiens (Human), UniProt P50993); assay type: biochemical
[5] = target: human Na,K-ATPase α2β3FXYD1 (Homo sapiens (Human), UniProt P50993+P54709); assay: biochemical; assay type: biochemical
basal IOP in rabbits = assay: Basal IOP in rabbits, topical administration; assay type: in vivo, rabbit

Row | SMILES | Ki ([1]; read-out: Ki in nM ± SEM α1β1) | Ki ([2]; read-out: Ki in nM ± SEM α2β1) | Selectivity Ki ratio α1β1/α2β1 [3] | Selectivity Ki ratio α1β1/α2β2 [4] | Ki ([4]; read-out: Ki in nM ± SEM α2β2) | Selectivity Ki ratio α1β1/α2β3 [5] | Ki ([5]; read-out: Ki in nM ± SEM α2β3) | selectivity for α2β3 over α1β1 (Ki α1β1:α2β3 ratio) [5] | also measured
1 | CC1CN(CCS(N)(=O)=O)CCC(O[C@@H]2C(C)O[C@@H](OC3C(C)OC(O[C@H]4CC[C@@]5(C)C(CCC6C5CC(O)[C@]5(C)[C@@H](C7=CC(=O)OC7)CC[C@]65O)C4)C[C@@H]3O)C[C@@H]2O)O1 (stereo in doubt) [DESA, 2-(7-(((2R,3S,4S,6S)-6-(((2R,3R,4S,6S)-6-(((3S,5R,8R,9S,10S,12R,13S,14S,17R)-12,14-dihydroxy-10,13-dimethyl-17-(5-oxo-2,5-dihydrofuran-3-yl)hexadecahydro-1H-cyclopenta[a]phenanthren-3-yl)oxy)-4-hydroxy-2-methyltetrahydro-2H-pyran-3-yl)oxy)-4-hydroxy-2-methyltetrahydro-2H-pyran-3-yl)oxy)-2-methyl-1,4-oxazepan-4-yl)ethanesulfonamide] | 301 ± 23 nM | 38.9 ± 2.2 nM | 7.7 | 9.5 | 31.5 ± 4.4 nM | 15 | 20.1 ± 0.9 nM |  | 
2 | CC1CN(CCS(C)(=O)=O)CCC(O[C@@H]2C(C)O[C@@H](OC3C(C)OC(O[C@H]4CC[C@@]5(C)C(CCC6C5CC(O)[C@]5(C)[C@@H](C7=CC(=O)OC7)CC[C@]65O)C4)C[C@@H]3O)C[C@@H]2O)O1 (stereo in doubt) [DESM, 4-((3S,5R,8R,9S,10S,12R,13S,14S,17R)-12,14-dihydroxy-3-(((2S,4S,5R,6R)-4-hydroxy-5-(((2S,4S,5S,6R)-4-hydroxy-6-methyl-5-((2-methyl-4-(2-(methylsulfonyl)ethyl)-1,4-oxazepan-7-yl)oxy)tetrahydro-2H-pyran-2-yl)oxy)-6-methyltetrahydro-2H-pyran-2-yl)oxy)-10,13-dimethylhexadecahydro-1H-cyclopenta[a]phenanthren-17-yl)furan-2(5H)-one] | 464 ± 14 nM | 49.2 ± 1.9 nM | 9.4 | 14.6 | 31.7 ± 3.2 nM | 18.8 | 24.7 ± 2.1 nM |  | 
3 | CC1CN(CS(C)(=O)=O)CCC(O[C@@H]2C(C)O[C@@H](OC3C(C)OC(O[C@H]4CC[C@@]5(C)C(CCC6C5CC(O)[C@]5(C)[C@@H](C7=CC(=O)OC7)CC[C@]65O)C4)C[C@@H]3O)C[C@@H]2O)O1 (stereo in doubt) [DMSM, 4-((3S,5R,8R,9S,10S,12R,13S,14S,17R)-12,14-dihydroxy-3-(((2S,4S,5R,6R)-4-hydroxy-5-(((2S,4S,5S,6R)-4-hydroxy-6-methyl-5-((2-methyl-4-((methylsulfonyl)methyl)-1,4-oxazepan-7-yl)oxy)tetrahydro-2H-pyran-2-yl)oxy)-6-methyltetrahydro-2H-pyran-2-yl)oxy)-10,13-dimethylhexadecahydro-1H-cyclopenta[a]phenanthren-17-yl)furan-2(5H)-one] | 944 ± 123 nM | 137 ± 9.8 nM | 6.9 | 7.7 | 123 ± 7.3 nM | 10.6 | 89 nM |  | 
4 | CC1CN(C2CCCCC2)CCC(O[C@@H]2C(C)O[C@@H](OC3C(C)OC(O[C@H]4CC[C@@]5(C)C(CCC6C5CC(O)[C@]5(C)[C@@H](C7=CC(=O)OC7)CC[C@]65O)C4)C[C@@H]3O)C[C@@H]2O)O1 (stereo in doubt) [DcH, 4-((3S,5R,8R,9S,10S,12R,13S,14S,17R)-3-(((2S,4S,5R,6R)-5-(((2S,4S,5S,6R)-5((4-cyclohexyl-2-methyl-1,4-oxazepan-7-yl)oxy)-4-hydroxy-6-methyltetrahydro-2H-pyran-2-yl)oxy)-4-hydroxy-6-methyltetrahydro-2H-pyran-2-yl)oxy)-12,14-dihydroxy-10,13-dimethylhexadecahydro-1H-cyclopenta[a]phenanthren-17-yl)furan-2(5H)-one] | 70.4 ± 4.1 nM | 15.2 ± 3.7 nM | 4.6 | 4.6 | 15.3 ± 2.9 nM | 10.1 | 11.7 ± 4.5 nM | 10-12 fold | 
5 | CC1CN(C2CCCC2)CCC(O[C@@H]2C(C)O[C@@H](OC3C(C)OC(O[C@H]4CC[C@@]5(C)C(CCC6C5CC(O)[C@]5(C)[C@@H](C7=CC(=O)OC7)CC[C@]65O)C4)C[C@@H]3O)C[C@@H]2O)O1 (stereo in doubt) [DcPe, 4-((3S,5R,8R,9S,10S,12R,13S,14S,17R)-3-(((2S,4S,5R,6R)-5-(((2S,4S,5S,6R)-5-((4-cyclopentyl-2-methyl-1,4-oxazepan-7-yl)oxy)-4-hydroxy-6-methyltetrahydro-2H-pyran-2-yl)oxy)-4-hydroxy-6-methyltetrahydro-2H-pyran-2-yl)oxy)-12,14-dihydroxy-10,13-dimethylhexadecahydro-1H-cyclopenta[a]phenanthren-17-yl)furan-2(5H)-one] | 138 ± 21 nM | 33.4 ± 7.5 nM | 4.1 | 4.1 | 33.5 ± 11.9 nM | 5 | 27.6 ± 9.5 nM | 10-12 fold | 
6 | CC1CN(Cc2ccccc2)CCC(O[C@@H]2[C@H](C)O[C@@H](O[C@@H]3[C@H](C)O[C@@H](O[C@H]4CC[C@@]5(C)C(CCC6C5C[C@H](O)[C@]5(C)[C@@H](C7=CC(=O)OC7)CC[C@]65O)C4)C[C@@H]3O)C[C@@H]2O)O1 (stereo partly drawn) [DBz, 4-(3S,5R,8R,9S,10S,12R,13S,14S,17R)-3-(((2S,4S,5R,6R)-5-(((2S,4S,5S,6R)-5 ((4-benzyl-2-methyl-1,4-oxazepan-7-yl)oxy)-4-hydroxy-6-methyltetrahydro-2H-pyran-2-ypoxy)-4-hydroxy-6-methyltetrahydro-2H-pyran-2-yl)oxy)-12,14-dihydroxy-10,13-dimethythexadecahydro-1H-cyclopenta[a]phenanthren-17-yl)furan-2(5H)-one] | 57.9 ± 15.5 nM | 10.1 ± 2.2 nM | 5.7 | 8.5 | 6.8 ± 1.2 nM | 10.3 | 5.6 ± 1.6 nM | 10-12 fold | 
7 | CC1CN(CC(F)(F)F)CCC(O[C@@H]2[C@H](C)O[C@@H](O[C@@H]3[C@H](C)O[C@@H](O[C@H]4CC[C@@]5(C)C(CCC6C5C[C@H](O)[C@]5(C)[C@@H](C7=CC(=O)OC7)CC[C@]65O)C4)C[C@@H]3O)C[C@@H]2O)O1 (some centres unmarked) [DCF3] | 119 nM | 28.6 ± 0.9 nM | 4.1 | 6.5 | 18.1 ± 1.9 nM | 9.6 | 12.4 ± 1.5 nM |  | 
8 | CC1CN(CCC2CC2)CCC(O[C@@H]2[C@H](C)O[C@@H](O[C@@H]3[C@H](C)O[C@@H](O[C@H]4CC[C@@]5(C)C(CCC6C5C[C@H](O)[C@]5(C)[C@@H](C7=CC(=O)OC7)CC[C@]65O)C4)C[C@@H]3O)C[C@@H]2O)O1 (some centres unmarked) [DEcP] | 86.1 ± 7 nM | 14.3 ± 2 nM | 6.02 | 7.1 | 12.1 ± 1.9 nM | 12.02 | 7.2 ± 1 nM | 10-12 fold | 
9 | CCN1CCC(O[C@@H]2[C@H](C)O[C@@H](O[C@@H]3[C@H](C)O[C@@H](O[C@H]4CC[C@@]5(C)C(CCC6C5C[C@H](O)[C@]5(C)[C@@H](C7=CC(=O)OC7)CC[C@]65O)C4)C[C@@H]3O)C[C@@H]2O)OC(C)C1 (some centres unmarked) [DEt] | 138 ± 12.6 nM | 23.2 ± 0.9 nM | 5.9 | 8.3 | 16.4 ± 1.6 nM | 9.5 | 14.4 ± 1.27 nM |  | 
10 | CC(C)OC(=O)CCC/C=C\C[C@@H]1[C@@H](CC[C@@H](O)CCc2ccccc2)[C@H](O)C[C@@H]1O [Latanoprost, reference compound] |  |  |  |  |  |  |  |  | time after which IOP returned to the control value (basal IOP in rabbits; 1 mM DcB, 0.005% Latanoprost): 12 h; steady-state IOP as % of the unchanged control values (basal IOP in rabbits; after 3-8 hours): 85%; steady-state IOP lower than basal IOP (basal IOP in rabbits; after 3-8 hours, basal IOP 17-18 mmHg, 1 mM DcB, 0.005% Latanoprost): 2.6±0.11 mmHg
11 | CC(=O)O[C@H]1C[C@H](O[C@H]2[C@@H](OC(C)=O)C[C@H](O[C@H]3CC[C@@]4(C)[C@H](CC[C@@H]5[C@@H]4C[C@@H](OC(C)=O)[C@]4(C)[C@@H](C6=CC(=O)OC6)CC[C@]54O)C3)O[C@@H]2C)O[C@H](C)[C@H]1OC1CCN(C2CCC2)CC(C)O1 (stereo partly drawn) [TrisAcDcB, (2R,3R,4S,6R)-6-(((3S,5R,8R,9S,10S,12R,13S,14S,17R)-12-acetoxy-14-hydroxy-10,13-dimethyl-17-(5-oxo-2,5-dihydrofuran-3-yl)hexadecahydro-1H-cyclopenta[a]phenanthren-3-yl)oxy)-3-(((2S,4S,5R,6R)-4-acetoxy-5-((4-cyclobutyl-2-methyl-1,4-oxazepam-7-yl)oxy)-6-methyltetrahydro-2H-pyran-2-yl)oxy)-2-methyltetrahydro-2H-pyran-4-yl acetate] |  |  |  |  |  |  |  |  | Ki of α1β1 higher than that of DcB [1]: ~100 fold; Ki ([1]; read-out: Ki of α1β1FXYD1): 13200 ± 6500 nM; Ki of α2β1 higher than that of DcB [2]: ~300 fold; Ki ([2]; read-out: Ki of α2β1FXYD1): 2500 ± 490 nM; time of return of IOP to the control level (basal IOP in rabbits; 0.05, 0.1, 0.2 mM): 12 h; time to minimum IOP (basal IOP in rabbits; 0.05, 0.1, 0.2 mM): 5 to 6 h; maximal effect on IOP compared with parent DcB (basal IOP in rabbits; 0.05-0.2 mM prodrug): essentially equal to that produced by the parent DcB; minimum IOP (basal IOP in rabbits; from 15-16 mmHg, 0.05, 0.1, 0.2 mM): 12 mmHg; onset of effect on basal IOP (basal IOP in rabbits; one 30 μl drop, 0.05, 0.1, 0.2 mM): no effect was observed at the first four hours
12 | [O]=[V]([OH])([OH])[OH] [Vanadate, vanadate, reference compound] |  |  |  |  |  |  |  |  | Ki ([1]; read-out: apparent vanadate affinity α1β1): 480 nM; Ki ([2]; Example 2, vanadate titration, read-out: apparent vanadate affinity α2β1): 3500 nM; Ki ([4]; read-out: apparent vanadate affinity α2β2): 34000 nM; Ki ([5]; read-out: apparent vanadate affinity α2β3): 1900 nM
